{"source": "paper PMC8287944", "about": "“5-Fluorouracil blocks quorum-sensing of biofilm-embedded methicillin-resistant Staphylococcus aureus in mice” (Nucleic Acids Research, 2021)", "key": {"[1]": {"tested_on": "V. harveyi (BB170)", "assay": "V. harveyi BB170 growth (OD600 after 24 h)", "type": "cell-based, Vibrio harveyi", "conditions": "V. harveyi BB170, OD600 after 24 h", "protocol": "The test strain V. harveyi BB170 was grown overnight in Luria Marine (LM)-medium ([25]). The culture was 1:500 diluted in AB-medium (0.3 M NaCl, 10 mM potassium phosphate, 1 mM L-arginine, […], 1% glycerol) the next day, and then challenged with various chemical compounds. After 5 h of shaking at 200 rpm at 30°C, the bioluminescence of BB170 was quantified on a GENios Pro plate reader (Tecan, Männedorf, Switzerland).\nFigure 3. Bioactivity of hit candidates against Vibrio harveyi. Effect on bacterial growth. V. harveyi (BB170) was grown in the presence of individual compounds (A–H) for 5 h and the bioluminescence (green circles) was quantified. After a total of 24 h, bacterial growth (+) was evaluated by measuring the optical density (OD600). The gray translucent background in (C) represents the narrow range within which the compound reduces bioluminescence without affecting growth."}, "[2]": {"tested_on": "AI-2 production by HEK-293AI2 cells expressing MTAN and LuxS", "assay": "HEK-293AI2 / V. harveyi (MM32) AI-2 detection platform (AI-2 production by engineered human cells)", "type": "cell-based, human cells; MTAN and LuxS derived from E. coli", "conditions": "Homo sapiens, 24 h, HEK-293AI2 cells exposed 24 h; AI-2 in supernatant read by V. harveyi MM32 bioluminescence", "protocol": "LuxS (MF688636) and MTAN (MF688635) transgenes derived from E. coli were codon-optimized for stable expression in mammalian cells. For the generation of double stable HEK-293-derived cell line HEK-293AI2 transgenic for simultaneous constitutive PhEFIα-driven MTAN and PhCMV-driven LuxS-eYFP expression, 250,000 cells were first transfected with 2000 ng of pFS168 (PhEFIα-MTAN-pA) and selected in culture medium containing 20 μg/ml blasticidin (cat. no. ant-bl-1; InvivoGen, San Diego, CA, USA) for two weeks. […] After 17 days of selection in medium containing 200 μg/ml (w/v) zeocin (cat. no. ant-zn-1; Invivogen, San Diego, CA, USA) and 20 μg/ml blasticidin, resistant monoclonal cells (HEK-293sFS26cx) were obtained by limiting dilution cloning and screened for AI-2 activity in their supernatants. […] The cell line was regularly tested for the absence of mycoplasma.\n20 μl of HEK-293AI2 cells (10^4 cells per well) were resuspended in 20 μl Dulbecco's modified Eagle's medium (DMEM; Thermo Fisher, Basel, Switzerland, low glucose, without phenol red, cat. no. 11880–028) supplemented with 4 mM L-glutamine (Thermo Fisher, Basel, Switzerland, cat. no. 25030-024), 30 μg/ml kanamycin and 1% FCS and seeded into a poly-L-lysine-coated Black Greiner clear-bottom 384-well plate (cat. no. 3845; Corning, New York, USA) using a Multidrop Combi Reagent Dispenser (cat. no. 5840300; Thermo Fisher, Basel, Switzerland). Cells were incubated for 20 h and then 20 nL of individual compounds (stock solution in 5 mM in DMSO) or controls (stock solutions of novobiocin, 10 mM in DMSO; staurosporin, 20 mM in DMSO) were transferred with Echo 550 liquid handler (Labcyte, San Jose, CA, USA) into the plate.\nCompound-treated cells were cultivated for 24 hours and the cell culture supernatants (10 μl) were transferred to dry black polystyrene 384-well plates (Corning, New York, USA, cat. no. 3571). The AI-2 activity was quantified by adding 40 μl per 384-well of V. harveyi MM32 AI-2 reporter strain, diluted 1:500 in AB-Medium from a stationary overnight culture grown in Luria Marine (LM)-medium containing 20 g of NaCl, 10 g of Bacto Tryptone (Difco Laboratories), and 5 g of yeast extract (BBL) ([25]). Plates were sealed with BREATHseal™ (cat. no. 7.676 050; Greiner Bio-One, Frickenhausen, Germany) and incubated for 4 h at 30°C and 200 rpm on a Multitron Pro shaker (Infors, Bottmingen, Switzerland). Bioluminescence was measured on an Envision 2104 Multilabel plate reader (Perkin Elmer, Waltham, USA) with 1 s integration time. […] The initial hit inclusion criteria were a toxicity score of less than 50% and an AI-2 activity reduction below the average of all compound activity three times the standard deviation (-49.39% of activity).\n(§1) Figure 2. Cell-based primary screen for AI-2 biosynthesis inhibitors. (A) Detailed assay protocol of the primary screen using engineered mammalian cells to identify inhibitors of quorum sensing. […] Aliquots of 10 μl of culture supernatants were transferred to black-bottomed assay plates and mixed with 40 μl of V. harveyi MM32 (AI-2 biosensor). AI-2-induced bioluminescence was measured 4 h later and normalized against the controls. In a secondary screen, the dose-response relationships of hit compounds are analyzed. To simultaneously assess effects on cell viability, compound-treated cells were supplemented with PrestoBlue and incubated for 1 h prior to resorufin fluorescence quantification. (B) Z’-evaluation of the AI-2 inhibitor assay."}, "[3]": {"tested_on": "MRSA ATCC 43300", "assay": "Biofilm formation (Crystal Violet)", "type": "cell-based, Staphylococcus aureus", "conditions": "0.1 μM 5-FU, 24 h", "protocol": "To quantify the formation of bacterial biofilms, bacteria were grown for 24 h in the presence of potential inhibitors in 96-well polystyrene plates. The plates were then washed three times with distilled water. Remaining cells were stained with 0.1% Crystal Violet solution (5% methanol, 5% isopropanol) and further washed to remove excess dye. Crystal Violet was redissolved in 20% acetic acid solution and the absorbance of the solution was measured at 600 nm.\nFigure 4. Bioactivity of 5-FU against MRSA ATCC 43300. (A) Quorum sensing-associated AI-2 activity of MRSA 43300 grown for 3 h with different 5-FU concentrations. (B) Effect of different 5-FU concentrations on MRSA 43300 growth. (C) Interference with biofilm formation. (D) Effect on adherent MRSA 43300. Data points represent three biological replicates expressed as mean ± SD (**P < 0.01; ***P < 0.001; ****P < 0.0001)."}, "[4]": {"tested_on": "HEK-293AI2 cells", "type": "cell-based, human", "conditions": "human, 5 µM", "protocol": "To monitor viable cells with active metabolism, we employed a fast resazurin assay. […] To calculate the relative cell viability, the fluorescence of DMSO-treated cells was set to 100%.\nas §1, with “assay. […] Bioactivity and viability are calculated as percentages, based on the positive control value (taken as 100%) and negative control value (taken as 0%). […] Data points in (C) represent means of biological duplicates.” for “assay.”"}}, "note": "pIC50: −log10 of the molar value.", "data": [{"smiles": "O=c1[nH]cc(F)c(=O)[nH]1", "note": "[5-Fluorouracil]", "values": [{"measurement": "Effect on V. harveyi growth", "setting": "[1]", "result": "without decreasing the growth"}, {"measurement": "pIC50", "setting": "[2]", "result": 6.34}, {"measurement": "Biofilm formation of MRSA", "setting": "[3]", "result": "significantly decreased biofilm formation"}, {"measurement": "Viability of Ctrl (%)", "setting": "[4]", "result": 1.53, "unit": "%"}]}]}
